Assay results: paper PMC6384781, “Design, Synthesis, Docking Studies and Monoamine Oxidase Inhibition of a Small Library of 1-acetyl- and 1-thiocarbamoyl-3,5-diphenyl-4,5-dihydro-(1H)-pyrazoles” (Molecules, 2019)

Columns and labels:
hMAO-A = target: T1, hMAO-A (Homo sapiens, UniProt P21397); test: hMAO-A inhibition, Amplex Red fluorometric assay with kynuramine substrate; type: biochemical; settings: for IC50 / IC50 hMAO-A: recombinant hMAO-A, kynuramine 50 µM, mean ± SD of triplicate, max tested 100 µM; for fold difference of hMAO-A inhibition, (R)-enantiomer versus (S)-enantiomer: (R)- compared with (S)-enantiomer of the same compound
T1 construct: purchased Sigma-Aldrich; host or cells: insect cells (microsomes)
T1 sequence (P21397 1-527): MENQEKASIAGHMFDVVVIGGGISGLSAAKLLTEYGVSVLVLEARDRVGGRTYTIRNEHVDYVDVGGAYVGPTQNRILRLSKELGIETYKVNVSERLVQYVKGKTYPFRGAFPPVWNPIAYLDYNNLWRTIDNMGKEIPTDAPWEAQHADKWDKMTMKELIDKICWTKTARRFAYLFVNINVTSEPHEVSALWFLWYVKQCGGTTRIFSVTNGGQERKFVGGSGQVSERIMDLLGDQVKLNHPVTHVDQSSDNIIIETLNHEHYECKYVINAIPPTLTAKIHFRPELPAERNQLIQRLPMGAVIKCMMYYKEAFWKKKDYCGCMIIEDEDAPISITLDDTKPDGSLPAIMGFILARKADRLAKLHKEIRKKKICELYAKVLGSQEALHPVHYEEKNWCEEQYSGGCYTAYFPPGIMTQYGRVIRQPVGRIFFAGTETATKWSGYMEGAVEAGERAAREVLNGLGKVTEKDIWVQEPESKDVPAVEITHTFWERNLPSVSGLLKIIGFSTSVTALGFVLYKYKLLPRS
Protocol: (§1) The synthesized compounds P1–P18 were evaluated as hMAO inhibitors using the recombinant hMAOs as enzyme sources and kynuramine as substrate. A fluorometric method based on the Amplex® Red reagent (λex = 560 nm; λem = 590 nm) was used to measure hMAO activity. In this horseradish peroxidase-linked assay, Amplex® Red reacts with hydrogen peroxide that is produced by the MAO catalytic cycle to yield a fluorescent product, resorufin [28]. By thus recording the MAO-catalyzed formation of hydrogen peroxide in the presence of different concentrations of a test inhibitor, sigmoidal plots of enzyme activity versus the logarithm of inhibitor concentration were constructed from which IC50 values were estimated (GraphPad Prism 5). All IC50 values were measured in triplicate and are expressed as the mean ± standard deviation (SD). The inhibitory activities of compounds P1–P18 are summarized in Table 1 along with selectivity index (SI) values which are the ratio of IC50(hMAO-A)/IC50(hMAO-B). SI < 1 indicates selectivity for MAO-A, whereas SI > 1 indicates selectivity for the MAO-B isoform.
(§2) Microsomes from insect cells expressing recombinant hMAO-A or hMAO-B (5 mg protein/mL) served as enzyme sources, and were pre-aliquoted and stored at −70 °C. All enzymatic reactions were carried out to a final volume of 200 µL in black 96-well microtiter plates (Corning). Potassium phosphate buffer (100 mM, pH 7.4, made isotonic with KCl) served as reaction solvent. The reactions contained kynuramine (50 µM), various concentrations of the test inhibitor (0.003–100 μM), horseradish peroxidase (1 unit/mL) and Amplex® Red (200 µM). Stock solutions of the test inhibitors were prepared in DMSO and added to the reactions to yield a final concentration of 4% (v/v) DMSO. The reactions were initiated with the addition of hMAO-A (0.0075 mg protein/mL) or hMAO-B (0.015 mg protein/mL), and incubated at 37 °C for 20 min in a convection oven. At endpoint, the reactions were terminated with the addition of 10 μL pargyline (20 mM) and 10 μL (R)-deprenyl (5 mM) for hMAO-A and hMAO-B, respectively. The concentrations of resorufin in the reactions were determined by fluorescence spectrophotometry (λex = 560 nm, λem = 590 nm). Resorufin was quantitated with a linear calibration curve, which was constructed from standard solutions containing hydrogen peroxide (0.05–1.6 µM). Each standard was prepared to a final volume of 200 μL in potassium phosphate buffer and also contained horseradish peroxidase (1 unit/mL), Amplex® Red (200 µM), 4% DMSO as co-solvent, 10 μL pargyline (20 mM) for hMAO-A and 10 μL (R)-deprenyl (5 mM) for hMAO-B. The IC50 values were determined by constructing sigmoidal curves of MAO catalytic activity versus the logarithm of inhibitor concentration. For this purpose, the one site competition model incorporated into the Prism 5 software package (GraphPad, San Diego, CA, USA) was used. All experiments were carried out in triplicate and the IC50 values are expressed as mean ± standard deviation (SD).

hMAO-B = target: T2, hMAO-B (Homo sapiens, UniProt P27338); test: hMAO-B inhibition, Amplex Red fluorometric assay with kynuramine substrate; type: biochemical; settings: for SI (selectivity index for the hMAO-B isoform): ratio IC50(hMAO-A)/IC50(hMAO-B), SI > 1 = MAO-B selective; for IC50 / IC50 hMAO-B: recombinant hMAO-B, kynuramine 50 µM, mean ± SD of triplicate, max tested 100 µM
T2 construct: purchased Sigma-Aldrich; host or cells: insect cells (microsomes)
T2 sequence (P27338 1-520): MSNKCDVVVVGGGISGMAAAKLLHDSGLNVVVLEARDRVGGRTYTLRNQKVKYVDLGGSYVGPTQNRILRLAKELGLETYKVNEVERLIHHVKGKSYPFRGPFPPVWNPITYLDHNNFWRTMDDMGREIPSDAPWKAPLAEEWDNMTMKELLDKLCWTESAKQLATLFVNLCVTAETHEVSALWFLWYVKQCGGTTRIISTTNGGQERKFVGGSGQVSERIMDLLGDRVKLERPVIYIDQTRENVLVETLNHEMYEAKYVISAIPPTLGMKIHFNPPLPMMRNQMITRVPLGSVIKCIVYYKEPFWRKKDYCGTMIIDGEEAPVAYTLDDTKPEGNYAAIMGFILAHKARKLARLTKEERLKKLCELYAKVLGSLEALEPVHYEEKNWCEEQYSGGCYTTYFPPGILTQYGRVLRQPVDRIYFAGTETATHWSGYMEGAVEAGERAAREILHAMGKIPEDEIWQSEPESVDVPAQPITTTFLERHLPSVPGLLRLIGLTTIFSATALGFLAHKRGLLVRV
Protocol: as §1, §2

IC50 (hMAO-A) [µM] | SI (selectivity index for the hMAO-B isoform) (hMAO-B) | IC50 (hMAO-B) [µM] | fold difference of hMAO-A inhibition, (R)-enantiomer versus (S)-enantiomer (hMAO-A) [fold] | fold higher hMAO-B inhibitory activity, (R)-enantiomer versus (S)-enantiomer (hMAO-B; (R)- compared with (S)-enantiomer of the same compound) [fold] | IC50 hMAO-A (hMAO-A) | melting point [°C] | fold higher inhibitory activity for hMAO-A than for hMAO-B (hMAO-A; hMAO-A versus hMAO-B) [fold] | IC50 hMAO-B (hMAO-B) | SMILES
50.6 ± 2.67 | <0.51 | > 100 | – | – | – | – | – | – | COc1ccc(C2=NN(C(N)=S)[C@@H](c3ccccc3)C2)cc1 [(R)-P1]
33.9 ± 1.29 | <0.34 | > 100 | – | – | – | – | – | – | CCOc1ccc(C2=NN(C(N)=S)[C@@H](c3ccccc3)C2)cc1 [(R)-P2]
8 ± 0.83 | 2.89 | 2.77 ± 0.39 | – | – | – | – | – | – | CCCOc1ccc(C2=NN(C(N)=S)[C@@H](c3ccccc3)C2)cc1 [(R)-P3]
3.63 ± 0.5 | 9.55 | 0.38 ± 0.06 | 10 | – | – | – | – | – | CCCCOc1ccc(C2=NN(C(N)=S)[C@@H](c3ccccc3)C2)cc1 [(R)-P4]
3.03 ± 0.6 | 6.89 | 0.44 ± 0.028 | 18 | 6 | – | – | – | – | CCCCCOc1ccc(C2=NN(C(N)=S)[C@@H](c3ccccc3)C2)cc1 [(R)-P5]
46.6 ± 2.62 | <0.47 | > 100 | – | – | – | – | – | – | COc1ccc(C2=NN(C(N)=S)[C@H](c3ccccc3)C2)cc1 [(S)-P1]
32.3 ± 4.46 | <0.32 | > 100 | – | – | – | – | – | – | CCOc1ccc(C2=NN(C(N)=S)[C@H](c3ccccc3)C2)cc1 [(S)-P2]
9.59 ± 0.83 | 0.23 | 42.5 ± 2.61 | – | – | – | – | – | – | CCCOc1ccc(C2=NN(C(N)=S)[C@H](c3ccccc3)C2)cc1 [(S)-P3]
39.2 ± 2.15 | 7.78 | 5.03 ± 0.88 | – | – | – | – | – | – | CCCCOc1ccc(C2=NN(C(N)=S)[C@H](c3ccccc3)C2)cc1 [(S)-P4]
55.2 ± 2.72 | 19.77 | 2.79 ± 0.87 | – | – | – | – | – | – | CCCCCOc1ccc(C2=NN(C(N)=S)[C@H](c3ccccc3)C2)cc1 [(S)-P5]
> 100 | >1.85 | 54.1 ± 7.54 | – | – | ineffective | – | – | – | CC(C)=CCCC(C)=CCOc1ccc(C2=NN(C(N)=S)C(c3ccccc3)C2)cc1 (stereo not drawn) [Compound P6, 3-(4-((3,7-dimethylocta-2,6-dien-1-yl)oxy)phenyl)-5-phenyl-4,5-dihydro-1H-pyrazole-1-carbothioamide]
39.3 ± 5.94 | 2.72 | 14.5 ± 2.78 | – | – | – | 95 to 98 | – | – | C=CCOc1ccc(C2=NN(C(C)=O)C(c3ccccc3)C2)cc1 (stereo not drawn) [Compound P7, 1-(3-(4-(allyloxy)phenyl)-5-phenyl-4,5-dihydro-1H-pyrazol-1-yl)ethan-1-one]
> 100 | >43.67 | 2.29 ± 0.42 | – | – | – | – | – | – | CC(=O)N1N=C(c2ccc(OCC=C(C)C)cc2)CC1c1ccccc1 (stereo not drawn) [Compound P8]
9.13 ± 0.34 | 0.33 | 27.3 ± 0.57 | – | – | – | 110 to 112 | 3 | – | CC(=O)N1N=C(c2ccc(OCC=C(C)C)cc2)CC1c1ccccc1C (stereo not drawn) [Compound P9, 1-(3-(4-((3-methylbut-2-en-1-yl)oxy)phenyl)-5-(o-tolyl)-4,5-dihydro-1H-pyrazol-1-yl)ethan-1-one]
86.8 ± 14.7 | 26.96 | 3.22 ± 0.48 | – | – | – | 120 to 122 | – | – | CC(=O)N1N=C(c2ccc(OCC=C(C)C)cc2)CC1c1cccc(C)c1 (stereo not drawn) [Compound P10, 1-(3-(4-((3-methylbut-2-en-1-yl)oxy)phenyl)-5-(m-tolyl)-4,5-dihydro-1H-pyrazol-1-yl)ethan-1-one]
> 100 | >8.19 | 12.2 ± 0.71 | – | – | – | – | – | – | CC(=O)N1N=C(c2ccc(OCC=C(C)C)cc2)CC1c1ccc(C)cc1 (stereo not drawn) [Compound P11, 1-(3-(4-((3-methylbut-2-en-1-yl)oxy)phenyl)-5-(p-tolyl)-4,5-dihydro-1H-pyrazol-1-yl)ethan-1-one]
80.6 ± 10 | <0.81 | > 100 | – | – | – | 117 to 119 | – | – | CC(=O)N1N=C(c2ccc(OCC=C(C)C)cc2)CC1c1ccc(C)cc1C (stereo not drawn) [Compound P12, 1-(5-(2,4-dimethylphenyl)-3-(4-((3-methylbut-2-en-1-yl)oxy)phenyl)-4,5-dihydro-1H-pyrazol-1-yl)ethan-1-one]
5.74 ± 1.66 | 1.85 | 3.11 ± 0.66 | – | – | – | 131 to 134 | – | – | CC(=O)N1N=C(c2ccc(OCC=C(C)C)cc2)CC1c1ccccc1Cl (stereo not drawn) [Compound P13, 1-(5-(2-chlorophenyl)-3-(4-((3-methylbut-2-en-1-yl)oxy)phenyl)-4,5-dihydro-1H-pyrazol-1-yl)ethan-1-one]
4.13 ± 0.26 | 3.82 | 1.08 ± 0.05 | – | – | – | 85 to 88 | – | – | CC(=O)N1N=C(c2ccc(OCC=C(C)C)cc2)CC1c1cccc(Cl)c1 (stereo not drawn) [Compound P14, 1-(5-(3-chlorophenyl)-3-(4-((3-methylbut-2-en-1-yl)oxy)phenyl)-4,5-dihydro-1H-pyrazol-1-yl)ethan-1-one]
12.1 ± 0.14 | 1.11 | 11 ± 3.56 | – | – | – | – | – | – | CC(=O)N1N=C(c2ccc(OCC=C(C)C)cc2)CC1c1ccc(Cl)cc1 (stereo not drawn) [Compound P15, 1-(5-(4-chlorophenyl)-3-(4-((3-methylbut-2-en-1-yl)oxy)phenyl)-4,5-dihydro-1H-pyrazol-1-yl)ethan-1-one]
> 100 | – | > 100 | – | – | did not inhibit | 128 to 130 | – | did not inhibit | CC(=O)N1N=C(c2ccc(OCC=C(C)C)cc2)CC1c1ccc(Cl)cc1Cl (stereo not drawn) [Compound P16, 1-(5-(2,4-dichlorophenyl)-3-(4-((3-methylbut-2-en-1-yl)oxy)phenyl)-4,5-dihydro-1H-pyrazol-1-yl)ethan-1-one]
> 100 | – | > 100 | – | – | devoid of inhibition activity | 132 to 135 | – | devoid of inhibition activity | CC(=O)N1N=C(c2ccc(OCC=C(C)C)cc2)CC1c1ccc(-c2ccccc2)cc1 (stereo not drawn) [Compound P17]
